The text below walks through data of patent US20090048173A1, “Use Of Dipyridamole For Treatment Of Resistance To Platelet Inhibitors” (priority 2004, published 2009).

The subject of test [1] is platelet aggregability. The following applies: aspirin resistant or aspirin semiresponders; literature 2001-2004; cited from earlier work.
Test [2] relates to platelets. In words: Platelet aggregation, conventional aggregometry, in blood of aspirin/clopidogrel resistant stroke/TIA patients pretreated in vitro with dipyridamole. In kind it is cell-based, human. The conditions noted are these: for Platelet aggregation 5 μM ADP: baseline 65.5 ± 6.3; for Platelet aggregation Collagen 1 μM / Platelet aggregation Arachidonic Acid 0.75 μM: non-responder blood, 45 min; for Platelet aggregation Collagen 1 μM: baseline 65.9 ± 8.9; for Platelet aggregation Arachidonic Acid 0.75 μM: baseline 72.5 ± 9.5. How it is done:
(§1) Aspirin/clopidogrel resistance is defined by lack of platelet inhibition after one month of mono- or combination therapy. Lack of platelet inhibition is defined when 4 out of the following 5 parameters are met: ADP-induced platelet aggregation remains >60%; collagen-induced aggregation >70%; whole blood aggregation >18 ohms; expression of GP IIb/IIIa >220 log MFI; and P-selectin cell positivity >8%.
(§2) Experiments are done (blood is incubated) with dipyridamole 2 μM/L and 4 μM/L.
(§3) Twenty ml of blood were collected from each participant, divided into 3 parts, and 2 parts were incubated for 45 min with 2 μM/L and 4 μM/L of Dipyridamole. This concentration corresponds to the physiological Dipyridamole concentration in plasma achieved 0.8-12 hours after oral administration of Aggrenox (25 mg of aspirin+200 mg of Dipyridamole). The third portion was incubated with the vehicle and served as internal control.
(§4) Patients on other antithrombotic agents including COX inhibitors, and NSAID were excluded. Blood samples were pretreated with dipyridamole (2 mkg/ml, 4 mkg/ml), simulating the therapeutic range, and then incubated for 45 minutes at 37° C. Platelets were assessed by conventional (1 μM collagen, 0.75 μM arachidonic acid, and 5 μM ADP), and whole blood (1 mg/ml collagen) aggregometry; the expression of GP IIb/IIIa, P-selectin, annexin V binding, intact (SPAN12), and cleaved (WEDE15) PAR-1 thrombin receptors by flow cytometry. Markers of TR (D-Dimer, Thrombin-Antithrombin-III Complexes, and Prothrombin Fragment F1+2) were measured in the autologous plasma samples by ELISA.

In test [3] the test system is GP IIb/IIIa. In words: Flow cytometry: platelet expression of CD41a (GP IIb/IIIa). The test is classed as cell-based, human. The following applies: for Flow-cytometry CD41a (GP IIb), MFI: non-responder blood, 45 min, baseline 429.0 ± 52.1. How it is done: as §1, §2, §3, §4
In general terms: A flow cytometer gives signals particle by particle.

Test [4] has as its system P-selectin. Put plainly: Flow cytometry: platelet expression of CD62p (P-selectin). The conditions noted are these: non-responder blood, 45 min, baseline 10.0 ± 1.8. The test is classed as cell-based, human. Here is the method:
as §1, §2
Twenty ml of blood were collected from each participant, divided into 3 parts, and 2 parts were incubated for 45 min with 2 μM/L and 4 μM/L of Dipyridamole. This concentration corresponds to the physiological Dipyridamole concentration in plasma achieved 0.8-12 hours after oral administration of Aggrenox (25 mg of aspirin+200 mg of Dipyridamole). […]
Patients on other antithrombotic agents including COX inhibitors, and NSAID were excluded. […] Platelets were assessed by conventional (1 μM collagen, 0.75 μM arachidonic acid, and 5 μM ADP), and whole blood (1 mg/ml collagen) aggregometry; the expression of GP IIb/IIIa, P-selectin, annexin V binding, intact (SPAN12), and cleaved (WEDE15) PAR-1 thrombin receptors by flow cytometry. Markers of TR (D-Dimer, Thrombin-Antithrombin-III Complexes, and Prothrombin Fragment F1+2) were measured in the autologous plasma samples by ELISA.

For test [5], the system named is Thrombin receptor (PAR-1). Put plainly: Flow cytometry: intact (SPAN12) and cleaved (WEDE15) PAR-1 thrombin receptors on platelets. In kind it is cell-based, human. The conditions noted are these: for Thrombin receptor (PAR-1) WEDE 15 (epitope of cleaved receptors) / Thrombin receptor (PAR-1) SPAN 12 (epitope of intact receptor): non-responder blood, 45 min; for Thrombin receptor (PAR-1) WEDE 15 (epitope of cleaved receptors): baseline 20.2 ± 3.4; for Thrombin receptor (PAR-1) SPAN 12 (epitope of intact receptor): baseline 31.6 ± 6.4. How it is done:
as §1, §2, §3, §4

The subject of test [6] is Annexin V binding sites on platelets. In words: Flow cytometry: Annexin V binding on platelets. In kind it is cell-based, human. The following applies: for Annexin V binding (PS % positive cells): non-responder blood, 45 min, baseline 9.5 ± 2.7. Here is the method:
as §1, §2, §3, §4

The subject of test [7] is thrombin generation. Put plainly: Thrombin generation markers in autologous plasma by ELISA. The conditions noted are these: for Prothrombin fragment F1 + 2 / Thrombin-antithrombin III Complex / Thrombin generation markers D-dimer: non-responder blood, 45 min; for Prothrombin fragment F1 + 2: baseline 1.9 ± 1.0; for Thrombin-antithrombin III Complex: baseline 3.2 ± 1.1; for Thrombin generation markers D-dimer: baseline 325.0 ± 84.6. In kind it is cell-based, human. How it is done:
as §1, §2, §3, §4
In general terms: ELISA stands for enzyme-linked immunosorbent assay.

For test [8] the following is noted: ESPS-2; J Neurol Sci. 1996; Neurology 1998; cited from earlier work.
Setting [9] is: DIP in vitro, 2 and 4 mkg/ml, blood of AR patients, listed as DIP.
[10] abbreviates: addition of DIP in vitro in AR patients.
Where [11] appears, read: Dipyridamole 4 μg/ml, p = 0.022.

“Also recorded” adds a separate entry of the source.

As to `CC(=O)Oc1ccccc1C(=O)O` [ASA, acetylsalicylic acid], the “patients treated with ASA who did not show appropriate reduction in platelet aggregability” value in test [1] was “up to 30%”.
As for `OCCN(CCO)c1nc(N2CCCCC2)c2nc(N(CCO)CCO)nc(N3CCCCC3)c2n1` [Dipyridamole, 2,6-bis(diethanolamino)-4,8-dipiperidino-pyrimido[5,4-d]pyrimidine], the “Platelet aggregation / aggregometry (in words)” value in test [2] (setting [9]) is listed as “not affected; also recorded: not changed”. Moreover, the “Platelet aggregation 5 μM ADP” value in test [2] (non-responder blood (n = 20) incubated 45 min at 37° C. with Dipyridamole 2 μg/ml, p = 0.13) came out at 63.6 ± 6.8%; in test [2] (non-responder blood (n = 20) incubated 45 min at 37° C. with Dipyridamole 4 μg/ml, p = 0.66) it was 63.8 ± 6.8%. In addition, the “Platelet aggregation Collagen 1 μM” value in test [2] (Dipyridamole 2 μg/ml, p = 0.13) worked out at 64.2 ± 7.4%; in test [2] (Dipyridamole 4 μg/ml, p = 0.38) it was 64.2 ± 6.9%. The “Platelet aggregation Arachidonic Acid 0.75 μM” value in test [2] (Dipyridamole 2 μg/ml, p = 0.41) was 71.4 ± 7.3; in test [2] (Dipyridamole 4 μg/ml, p = 0.12), 70.6 ± 6.2. In test [3] (setting [10]), the “GP IIb/IIIa (in words)” value is “sustained blockade”. The “Flow-cytometry CD41a (GP IIb), MFI” value in test [3] (Dipyridamole 2 μg/ml, p = 0.12) is listed as 417.6 ± 49.5 MFI; in test [3] (Dipyridamole 4 μg/ml, p = 0.22) it was 419.4 ± 49.1 MFI. Moreover, the “Flow-cytometry CD62p (P-selectin), % +” value in test [4] (Dipyridamole 2 μg/ml, p = 0.308) is reported as 9.4 ± 2.8 % +; in test [4] (Dipyridamole 4 μg/ml, p = 0.21) it was 9.4 ± 2.4 % +. For the same compound, the “PAR-1 receptors (in words)” value in test [5] (setting [10]) was “sustained blockade”. In addition, the “expression of intact PAR-1 receptor (in words)” value in test [5] (after incubation with 2 mkg/ml and 4 mkg/ml of dipyridamole (p=0.02 and p=0.024)) is “diminished expression”. Moreover, the “Thrombin receptor (PAR-1) WEDE 15 (epitope of cleaved receptors)” value in test [5] (Dipyridamole 2 μg/ml, p = 0.0507) amounted to 18.4 ± 3.1; in test [5] (setting [11]), 18.1 ± 3.0. For the same compound, the “Thrombin receptor (PAR-1) SPAN 12 (epitope of intact receptor)” value in test [5] (Dipyridamole 2 μg/ml, p = 0.02) was 27.8 ± 5.4; in test [5] (Dipyridamole 4 μg/ml, p = 0.024) it was 29.1 ± 5.5. For the same compound, the “activity of the cleaved PAR-1 (in words)” value in test [5] (only after incubation with 4 mkg/ml, statistically significant (p=0.022)) was “decreased activity”. The “annexin V binding (in words)” value in test [6] (after incubation with 2 mkg/ml and 4 mkg/ml of dipyridamole (p=0.031 and p=0.02), listed as DIP) is listed as “diminished; also recorded: sustained blockade”. Moreover, the “Annexin V binding sites compared to pre-incubation” value in test [6] (incubation of cells with DIP, patients with anti-platelet therapy resistance, e.g. ASA or clopidogrel resistance) is “significant reduction”. The “Annexin V binding (PS % positive cells)” value is listed as 7.9 ± 2.3 % positive cells in test [6] (Dipyridamole 2 μg/ml, p = 0.031) and 7.7 ± 1.9 % positive cells in test [6] (setting [11]). The “TG markers / TR markers (in words)” value in test [7] (setting [9]) is reported as “not affected; also recorded: not changed”. Further, the “Prothrombin fragment F1 + 2” value in test [7] (Dipyridamole 2 μg/ml, p = 0.17) came out at 1.8 ± 1.0 nM/L; in test [7] (Dipyridamole 4 μg/ml, p = 0.41), 1.8 ± 0.9 nM/L. Moreover, the “Thrombin-antithrombin III Complex” value in test [7] (Dipyridamole 2 μg/ml, p = 0.49) turned out to be 3.2 ± 1.2 µg/L; in test [7] (Dipyridamole 4 μg/ml, p = 0.24), 3.1 ± 1.2 µg/L. The “Thrombin generation markers D-dimer” value in test [7] (Dipyridamole 2 μg/ml, p = 0.55) came to 316.1 ± 90.1 µg/L; in test [7] (Dipyridamole 4 μg/ml, p = 0.48), 310.8 ± 83.8 µg/L. Also, the “reduction of stroke risk” value in test [8] was “as effective as low-dose aspirin”.
